Results on 7 compounds are retold here after patent US20090156577A1, “7-AMINO ALKYLIDENYL-HETEROCYCLIC QUINOLONES AND NAPHTHYRIDONES” (priority 2004, published 2009).

Molecules are shown by their SMILES. ≈ marks a conversion by molar mass, not a printed value. Like-named read-outs stand apart in the source and are kept apart here.

This assay has as its system pathogenic bacteria. The experiment in a line: MIC by microdilution broth method (NCCLS M7-A4), in vitro antibacterial activity. In kind it is cell-based. Put shortly: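 MIC read after 35 °C incubation for 16–20 h relative to drug-free growth wells. Cation-adjusted Mueller-Hinton broth with two-fold compound dilutions, organisms at roughly 5×10^4 CFU/well final. Method follows NCCLS document M7-A4.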

[1] abbreviates: Staphylococcus aureus, Organism A: Staphylococcus aureus OC4172, read-out: MIC.
[2] abbreviates: Streptococcus pneumoniae, ATCC49619, Organism E: Streptococcus pneumoniae ATCC 49619, read-out: MIC.
Where [3] appears, read: Streptococcus pneumoniae, Organism B: fluoroquinolone-resistant clinical isolate of Streptococcus pneumoniae (QRDR amino acid substitutions).
Setting [4] is: Streptococcus pneumoniae, Organism C: fluoroquinolone-resistant clinical isolate of Streptococcus pneumoniae (QRDR amino acid substitutions).
[5] abbreviates: Streptococcus pneumoniae, Organism D: fluoroquinolone-resistant clinical isolate of Streptococcus pneumoniae (QRDR amino acid substitutions).

Consider `NCC(Cl)=C1CCN(c2c(F)c(N)c3c(=O)c(C(=O)O)cn(C4CC4)c3c2F)CC1` [Compound 369, 5-Amino-7-[4-(2-amino-1-chloro-ethylidene)-piperidin-1-yl]-1-cyclopropyl-6,8-difluoro-4-oxo-1,4-dihydro-quinoline-3-carboxylic Acid], for which the minimum inhibitory concentration (MIC) turned out to be 0.03 µg/mL (≈ 0.0684 µM) under setting [1]; 0.03 µg/mL (≈ 0.0684 µM) under setting [2]; 0.06 µg/mL (≈ 0.137 µM) under setting [3]; 0.5 µg/mL (≈ 1.14 µM) under setting [4]; 0.12 µg/mL (≈ 0.273 µM) under setting [5].
Turning to `NC/C(F)=C1/COCCN(c2nc3c(cc2F)c(=O)c(C(=O)O)cn3C2CC2)C1` [Compound 497, (Z)-7-[6-(2-Amino-1-fluoro-ethylidene)-[1,4]oxazepan-4-yl]-1-cyclopropyl-6-fluoro-4-oxo-1,4-dihydro-[1,8]naphthyridine-3-carboxylic acid], the MIC reads like this: under setting [1], 1 µg/mL (≈ 2.46 µM); under setting [2], 4 µg/mL (≈ 9.84 µM); under setting [3], more than 1 µg/mL; under setting [4], more than 16 µg/mL; under setting [5], more than 16 µg/mL.
As to `COc1c(N2CC(=C(Cl)CN)C2)c(F)cc2c(=O)c(C(=O)O)cn(C3CC3)c12` [Compound 189, 7-[3-(2-Amino-1-chloro-ethylidene)-azetidin-1-yl]-1-cyclopropyl-6-fluoro-8-methoxy-4-oxo-1,4-dihydro-quinoline-3-carboxylic acid], the MIC under setting [1] was less than 0.12 µg/mL; the minimum inhibitory concentration (MIC) under setting [2] is 2 µg/mL (≈ 4.9 µM); 4 µg/mL (≈ 9.81 µM) was the least that counted as inhibitory under setting [3] (MIC); the MIC under setting [4] amounted to 2 µg/mL (≈ 4.9 µM); inhibition of growth under setting [5] (MIC) required 4 µg/mL (≈ 9.81 µM).
As to `CNC/C(F)=C1/CCCN(c2c(F)cc3c(=O)c(C(=O)O)cn(C4CC4)c3c2OC)C1.Cl` [Compound 453, (E)-1-Cyclopropyl-6-fluoro-7-[3-(1-fluoro-2-methylamino-ethylidene)-piperidin-1-yl]-8-methoxy-4-oxo-1,4-dihydro-quinoline-3-carboxylic Acid Hydrochloride Salt], the minimum inhibitory concentration (MIC) under setting [1] is 0.06 µg/mL, the minimum inhibitory concentration (MIC) under setting [2] was found to be 0.25 µg/mL, inhibition of growth under setting [4] (MIC) required 4 µg/mL and 2 µg/mL was the least that counted as inhibitory under setting [5] (MIC).
Turning to `CC1COc2c(N3CCC(=CCN)C(O)C3)c(F)cc3c(=O)c(C(=O)O)cn1c23` (centres unmarked) [Compound 210, 9-[4-(2-Amino-ethylidene)-3-hydroxy-piperidin-1-yl]-8-fluoro-3-methyl-6-oxo-2,3-dihydro-6H-1-oxa-3a-aza-phenalene-5-carboxylic acid], the MIC is 8 µg/mL (≈ 19.8 µM) under setting [1], more than 16 µg/mL under setting [2], 16 µg/mL (≈ 39.7 µM) under setting [3] and 16 µg/mL (≈ 39.7 µM) under setting [4].
Take `NCC(Cl)=C1CCN(c2c(F)cc3c(=O)c(C(=O)O)cn(-c4nc(N)c(F)cc4F)c3c2Cl)CC1` [Compound 270, 7-[4-(2-Amino-1-chloro-ethylidene)-piperidin-1-yl}-1-(6-amino-3,5-difluoropyridin-2-yl)-8-chloro-6-fluoro-4-oxo-1,4-dihydro-quinoline-3-carboxylic Acid]: the MIC reads like this: under setting [1], 0.06 µg/mL (≈ 0.114 µM); under setting [2], 0.5 µg/mL (≈ 0.946 µM); under setting [4], 4 µg/mL (≈ 7.57 µM); under setting [5], 2 µg/mL (≈ 3.79 µM).
On to `NCC(Cl)=C1CCN(c2c(F)cc3c(=O)c(C(=O)O)cn(C4CC4)c3c2OCF)CC1` [Compound 370, 7-[4-(2-Amino-1-chloro-ethylidene)-piperidin-1-yl]-1-cyclopropyl-6-fluoro-8-fluoromethoxy-4-oxo-1,4-dihydro-quinoline-3-carboxylic Acid], for which the MIC was 2 µg/mL (≈ 4.41 µM) under setting [1]; 8 µg/mL (≈ 17.6 µM) under setting [2]; more than 16 µg/mL under setting [3]; more than 16 µg/mL under setting [4]; 16 µg/mL (≈ 35.3 µM) under setting [5].
